Assay [1] has as its target T1, human Gcg receptor (Homo sapiens, UniProt P47871).
T1 construct: expressed in transfected cells; crude membranes
The assay can be described thus: [125I]-Glucagon binding (SPA), human Gcg receptor. The following applies: read-out: hGLcgR Ki, nM (SEM, n). An outline of the steps: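 Crude membranes from cells expressing the receptor, prepared by hypotonic lysis in 50 mM Tris HCl pH 7.5 with protease inhibitors, homogenization and differential centrifugation, were used in a WGA-bead SPA. Binding buffer: 25 mM HEPES pH 7.4, 2.5 mM CaCl2, 1 mM MgCl2, bacitracin, Tween-20.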

Assay [2] has as its target T2, human GIP receptor (Homo sapiens, UniProt P48546).
T2 construct: expressed in transfected cells; crude membranes
T2 sequence (P48546 22-466): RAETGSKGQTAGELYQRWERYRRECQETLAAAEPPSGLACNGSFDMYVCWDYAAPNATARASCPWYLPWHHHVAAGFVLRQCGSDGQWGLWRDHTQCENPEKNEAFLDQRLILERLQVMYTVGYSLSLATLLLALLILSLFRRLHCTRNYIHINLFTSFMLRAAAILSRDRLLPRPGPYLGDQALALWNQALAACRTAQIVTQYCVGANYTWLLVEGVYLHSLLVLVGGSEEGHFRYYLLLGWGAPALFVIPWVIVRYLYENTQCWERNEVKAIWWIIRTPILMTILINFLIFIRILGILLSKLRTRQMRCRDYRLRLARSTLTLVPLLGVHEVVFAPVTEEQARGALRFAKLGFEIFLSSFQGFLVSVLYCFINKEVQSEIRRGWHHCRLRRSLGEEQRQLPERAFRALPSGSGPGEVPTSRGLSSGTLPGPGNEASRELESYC
The assay can be described thus: [125I]-GIP binding (SPA), human GIP receptor. The following applies: read-out: hGIPR Ki, nM (SEM, n).

Assay [3] has as its target human GLP-1 receptor (GLP-1R) (Homo sapiens, UniProt P43220). Description: cAMP pharmacological functional assay in presence of casein, hGLP-1R. Type of assay: cell-based. The following applies: HEK293 cells expressing hGLP-1R, 0.1% Casein, geometric mean; read-out: hGLP1R cAMP Rel EC50 nM (SEM, n).
In assay [4] the target is T3, gastric inhibitory peptide receptor (GIPR) (Homo sapiens, UniProt P48546).
T3 sequence (P48546 22-466): T2 sequence (P48546 22-466)
Description: cAMP pharmacological functional assay in presence of casein, hGIPR. Particulars: HEK293 cells expressing hGIPR, 0.1% Casein, geometric mean; read-out: hGIPR cAMP Rel EC50 nM (SEM, n). Type of assay: cell-based.

In assay [5] the target is human GLP-1R (Homo sapiens, UniProt P43220). The assay can be described thus: [125I]-GLP-1 binding (SPA), human GLP-1 receptor. Also noted: expressed in transfected cells; crude membranes. Particulars: read-out: hGLP1R Ki, (nM) (SEM, n). The method, boiled down:
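Frozen cell pellets are lysed on ice in hypotonic Tris buffer, pH 7.5, homogenized, and centrifuged to a membrane pellet resuspended at about 1 to 3 mg/mL. Binding is then measured in HEPES-based buffer at pH 7.4, and curves are fitted to give IC50 and Ki.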

We go through four compounds from patent US12252524B2, “GIP/GLP1 co-agonist compounds” (Eli Lilly and Company, priority 2018, dated 2025).

Numbered stars: 1 amine (or outer) side, 2 acyl side, 3 side chain; on linkers, the order of the positions; unused ones are H or OH. Square brackets hold non-standard residues; d marks the D form. Side chains are listed from the residue outwards. Peptide text beside a SMILES is read from it. * marks the point of attachment. C20 diacid = O=C(O)CCCCCCCCCCCCCCCCCCC(=O)*; C18 diacid = O=C(O)CCCCCCCCCCCCCCCCC(=O)*; αMePhe(2-F) = C[C@](N)(Cc1ccccc1F)C(=O)O; γGlu = O=C(O)[C@H](CCC(=O)[*:2])N[*:1]; 4Pal = N[C@@H](Cc1ccncc1)C(=O)O; αMeL = CC(C)C[C@](C)(N)C(=O)O; Orn = NCCC[C@H](N)C(=O)O; AEEA = NCCOCCOCC(=O)O; Aib = CC(C)(N)C(=O)O

Chain of human GLP-1R (P43220 24-463): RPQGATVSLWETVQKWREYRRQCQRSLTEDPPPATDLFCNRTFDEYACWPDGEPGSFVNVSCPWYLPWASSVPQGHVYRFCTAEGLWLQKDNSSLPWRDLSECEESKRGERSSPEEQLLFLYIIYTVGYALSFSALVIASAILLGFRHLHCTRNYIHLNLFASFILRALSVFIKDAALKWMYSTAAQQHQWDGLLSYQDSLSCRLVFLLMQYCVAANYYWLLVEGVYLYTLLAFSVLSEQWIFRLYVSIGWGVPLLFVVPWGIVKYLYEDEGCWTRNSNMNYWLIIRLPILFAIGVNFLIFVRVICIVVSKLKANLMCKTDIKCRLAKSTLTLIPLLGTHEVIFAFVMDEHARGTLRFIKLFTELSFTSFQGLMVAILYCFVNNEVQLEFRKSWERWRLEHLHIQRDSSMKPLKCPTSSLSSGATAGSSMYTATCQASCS
Chain of human GLP-1 receptor (GLP-1R) (P43220 24-463): as above
T1 sequence (P47871 26-477): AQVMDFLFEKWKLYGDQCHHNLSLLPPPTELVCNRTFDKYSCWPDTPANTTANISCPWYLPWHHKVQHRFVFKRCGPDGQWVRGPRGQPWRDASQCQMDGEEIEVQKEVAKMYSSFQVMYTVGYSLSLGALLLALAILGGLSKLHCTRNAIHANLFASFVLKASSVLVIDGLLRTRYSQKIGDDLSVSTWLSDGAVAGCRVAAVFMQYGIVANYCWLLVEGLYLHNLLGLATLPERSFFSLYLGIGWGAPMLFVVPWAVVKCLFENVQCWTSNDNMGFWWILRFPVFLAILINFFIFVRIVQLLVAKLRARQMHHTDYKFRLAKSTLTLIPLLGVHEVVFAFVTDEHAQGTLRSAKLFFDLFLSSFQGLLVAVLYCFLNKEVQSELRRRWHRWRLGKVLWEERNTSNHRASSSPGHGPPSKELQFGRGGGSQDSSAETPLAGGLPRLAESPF

Broadly, the Ki is the dissociation constant of the complex between target and ligand, obtained from inhibition or displacement. Broadly, the EC50 is the concentration that produces a half-maximal response. Take `CC[C@H](C)[C@H](NC(=O)[C@H](CC(C)C)NC(=O)[C@H](Cc1ccc(O)cc1)NC(=O)[C@@H](CCC(=O)O)NC(=O)[C@@H](NC(=O)[C@H](Cc1ccccc1)NC(=O)[C@H](CCC(=O)O)NC(=O)C(C)(C)NC(=O)[C@H](CCC(N)=O)NC(=O)[C@H](C)NC(=O)[C@H](CCCCNC(=O)COCCOCCNC(=O)COCCOCCNC(=O)CC[C@H](NC(=O)CCCCCCCCCCCCCCCCCCC(=O)O)C(=O)O)NC(=O)[C@H](CCC(=O)O)NC(=O)[C@H](CC(=O)O)NC(=O)[C@H](CC(C)C)NC(=O)[C@](C)(CC(C)C)NC(=O)[C@H](CO)NC(=O)[C@H](Cc1ccc(O)cc1)NC(=O)[C@H](CC(=O)O)NC(=O)[C@H](CO)NC(=O)[C@@H](NC(=O)[C@](C)(Cc1ccccc1F)NC(=O)[C@@H](NC(=O)CNC(=O)[C@H](CCC(=O)O)NC(=O)C(C)(C)NC(=O)[C@@H](N)Cc1ccc(O)cc1)[C@@H](C)O)[C@@H](C)O)[C@@H](C)CC)C(=O)N[C@@H](CCC(=O)O)C(=O)NCC(=O)NCC(=O)N1CCC[C@H]1C(=O)N[C@@H](CO)C(=O)N[C@@H](CO)C(=O)NCC(=O)N[C@@H](C)C(=O)N1CCC[C@H]1C(=O)N1CCC[C@H]1C(=O)N1CCC[C@H]1C(=O)N[C@@H](CO)C(N)=O` [Example 229] (H-Y[Aib]EGT[αMePhe(2-F)]TSDYS[αMeL]LDEK([AEEA-AEEA-γGlu-C20 diacid])AQ[Aib]EFI[dE]YLIEGGPSSGAPPPS-NH2): the Ki is more than 1100 nM in assay [1], 2.47 nM in assay [2] and 36.2 nM in assay [5]. Besides, the EC50 in assay [3] stood at 2.11 nM; in assay [4], 4.79 nM.
The like results for `CC[C@H](C)[C@H](NC(=O)[C@H](CC(C)C)NC(=O)[C@H](Cc1ccc(O)cc1)NC(=O)[C@@H](CCC(=O)O)NC(=O)[C@@H](NC(=O)[C@H](Cc1ccccc1)NC(=O)[C@H](CCC(=O)O)NC(=O)C(C)(C)NC(=O)[C@H](CCC(N)=O)NC(=O)[C@H](C)NC(=O)[C@H](CCCCNC(=O)COCCOCCNC(=O)COCCOCCNC(=O)CC[C@H](NC(=O)CCCCCCCCCCCCCCCCCCC(=O)O)C(=O)O)NC(=O)[C@H](Cc1c[nH]cn1)NC(=O)[C@H](CC(=O)O)NC(=O)[C@H](CC(C)C)NC(=O)[C@](C)(CC(C)C)NC(=O)[C@@H](NC(=O)[C@H](CO)NC(=O)[C@H](Cc1ccc(O)cc1)NC(=O)[C@H](CC(=O)O)NC(=O)[C@H](CO)NC(=O)[C@@H](NC(=O)[C@](C)(Cc1ccccc1F)NC(=O)[C@@H](NC(=O)CNC(=O)[C@H](CCC(=O)O)NC(=O)C(C)(C)NC(=O)[C@@H](N)Cc1ccc(O)cc1)[C@@H](C)O)[C@@H](C)O)[C@@H](C)CC)[C@@H](C)CC)C(=O)N[C@@H](CCC(=O)O)C(=O)NCC(=O)NCC(=O)N1CCC[C@H]1C(=O)N[C@@H](CO)C(=O)N[C@@H](CO)C(=O)NCC(=O)N[C@@H](C)C(=O)N1CCC[C@H]1C(=O)N1CCC[C@H]1C(=O)N1CCC[C@H]1C(=O)N[C@@H](CO)C(N)=O` [Example 230] (H-Y[Aib]EGT[αMePhe(2-F)]TSDYSI[αMeL]LDHK([AEEA-AEEA-γGlu-C20 diacid])AQ[Aib]EFI[dE]YLIEGGPSSGAPPPS-NH2) were, in that order, 494 nM, 0.042 nM, 4.68 nM, 0.0491 nM and 0.0431 nM.
The like results for `CC[C@H](C)[C@H](NC(=O)[C@H](CC(C)C)NC(=O)[C@H](Cc1ccc(O)cc1)NC(=O)[C@@H](CCC(=O)O)NC(=O)[C@@H](NC(=O)[C@H](Cc1ccccc1)NC(=O)[C@H](CCC(=O)O)NC(=O)C(C)(C)NC(=O)[C@H](CCC(N)=O)NC(=O)[C@H](C)NC(=O)[C@H](CCCCNC(=O)COCCOCCNC(=O)COCCOCCNC(=O)CC[C@H](NC(=O)CCCCCCCCCCCCCCCCC(=O)O)C(=O)O)NC(=O)[C@H](CCCCN)NC(=O)[C@H](CC(=O)O)NC(=O)[C@H](CC(C)C)NC(=O)C(C)(CC(C)C)NC(=O)[C@@H](NC(=O)[C@H](CO)NC(=O)[C@H](Cc1ccc(O)cc1)NC(=O)[C@H](CC(=O)O)NC(=O)[C@H](CO)NC(=O)[C@@H](NC(=O)C(C)(Cc1ccccc1F)NC(=O)[C@@H](NC(=O)CNC(=O)[C@H](CCC(=O)O)NC(=O)C(C)(C)NC(=O)[C@@H](N)Cc1ccc(O)cc1)[C@@H](C)O)[C@@H](C)O)[C@@H](C)CC)[C@@H](C)CC)C(=O)N[C@@H](CCC(=O)O)C(=O)NCC(=O)NCC(=O)N1CCC[C@H]1C(=O)N[C@@H](CO)C(=O)N[C@@H](CO)C(=O)NCC(=O)N[C@@H](C)C(=O)N1CCC[C@H]1C(=O)N1CCC[C@H]1C(=O)N1CCC[C@H]1C(=O)N[C@@H](CO)C(N)=O` (some centres unmarked) [Example 231] were, in that order, 440 nM, 0.0394 nM, 3.03 nM, 0.0611 nM and 0.0253 nM.
The like results for `CC[C@H](C)[C@H](NC(=O)[C@H](CC(C)C)NC(=O)[C@H](Cc1ccc(O)cc1)NC(=O)[C@@H](CCC(=O)O)NC(=O)[C@@H](NC(=O)[C@H](Cc1ccccc1)NC(=O)[C@H](CCC(=O)O)NC(=O)C(C)(C)NC(=O)[C@H](CCC(N)=O)NC(=O)[C@H](C)NC(=O)[C@H](CCCCNC(=O)COCCOCCNC(=O)COCCOCCNC(=O)CC[C@H](NC(=O)CCCCCCCCCCCCCCCCC(=O)O)C(=O)O)NC(=O)[C@H](CCCN)NC(=O)[C@H](CC(=O)O)NC(=O)[C@H](CC(C)C)NC(=O)[C@](C)(CC(C)C)NC(=O)[C@@H](NC(=O)[C@H](CO)NC(=O)[C@H](Cc1ccncc1)NC(=O)[C@H](CC(=O)O)NC(=O)[C@H](CO)NC(=O)[C@@H](NC(=O)[C@](C)(Cc1ccccc1F)NC(=O)[C@@H](NC(=O)CNC(=O)[C@H](CCC(=O)O)NC(=O)C(C)(C)NC(=O)[C@@H](N)Cc1ccc(O)cc1)[C@@H](C)O)[C@@H](C)O)[C@@H](C)CC)[C@@H](C)CC)C(=O)N[C@@H](CCC(=O)O)C(=O)NCC(=O)NCC(=O)N1CCC[C@H]1C(=O)N[C@@H](CO)C(=O)N[C@@H](CO)C(=O)NCC(=O)N[C@@H](C)C(=O)N1CCC[C@H]1C(=O)N1CCC[C@H]1C(=O)N1CCC[C@H]1C(=O)N[C@@H](CO)C(N)=O` [Example 232] (H-Y[Aib]EGT[αMePhe(2-F)]TSD[4Pal]SI[αMeL]LD[Orn]K([AEEA-AEEA-γGlu-C18 diacid])AQ[Aib]EFI[dE]YLIEGGPSSGAPPPS-NH2) were, in that order, more than 1150 nM, 0.0544 nM, 5.62 nM, 0.0724 nM and 0.027 nM.
